Test systems include BT-549; ACHN; PC-3; SW-620; CAKI-1; HCT-15; K562; TK-10; SN12C; KM12; HOP-92; A549; UACC-62; NCI-H460; SF-268; NCI-H522; T47D; LOX IMVI; MCF7; SR.
Test in all cases: NCI anticancer screen, dose series, 48 h

Molecules are shown by their SMILES.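 Briefly, cells in 96-well plates were exposed to five compound concentrations for 48 h, and endpoints were estimated by linear interpolation. GI50 marks 50% less growth.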 Active and inactive are the calls of the source. Cut-off read from the data, not from the text of the source: active = GI50 up to about 1.1 µM and inactive = higher.

Regarding `c1ccc(CC2(c3cc4ccccc4[nH]3)OCCO2)nc1`, the GI50 was > 100 µM (inactive) in the assay with BT-549; > 100 µM (inactive) with ACHN; > 100 µM (inactive) in the assay on PC-3; > 100 µM (inactive) with SW-620; > 100 µM (inactive) in the assay with CAKI-1; above 100 µM in the assay on HCT-15. Also, the GI50 in the assay on K562 was 50.2 µM (inactive); in the assay with TK-10, > 100 µM (inactive); in the assay with SN12C it was > 100 µM (inactive); in the assay with KM12, > 100 µM (inactive); in the assay with HOP-92 it was > 100 µM (inactive); with A549 it was > 100 µM (inactive). In addition, the GI50 is > 100 µM (inactive) in the assay with UACC-62; > 100 µM (inactive) in the assay with NCI-H460; > 100 µM (inactive) with SF-268; 70.8 µM (inactive) in the assay on NCI-H522; > 100 µM (inactive) in the assay on T47D; 34.7 µM (inactive) in the assay on LOX IMVI.

Take `Sc1nnc(NNc2ccccc2)n1Nc1ccccc1`: the GI50 in the assay on BT-549 is 8.69 µM (inactive); with ACHN, 0.824 µM (active); in the assay with PC-3, 44.8 µM (inactive); in the assay with SW-620, 28.7 µM (inactive); with CAKI-1 it was > 36.9 µM (inactive); in the assay with HCT-15, 2.1 µM. Also, the GI50 with K562 was 0.0213 µM (active); in the assay on MCF7, 0.508 µM (active); with TK-10, > 52.6 µM (inactive); in the assay with SN12C it was > 95.9 µM (inactive); with KM12, 26.1 µM (inactive); in the assay with HOP-92 it was 25.3 µM (inactive). Further, the GI50 with A549 is 8.97 µM (inactive); in the assay on UACC-62, 0.0427 µM (active); with NCI-H460, 0.146 µM (active); in the assay on SF-268, > 82.4 µM (inactive); in the assay on NCI-H522, 42.5 µM (inactive); in the assay with T47D, 0.528 µM (active).

For `CCn1c2ccccc2c2cc(NC(=O)c3c(C)nc(O)nc3NCCNCCO)ccc21`, the GI50 was > 100 µM (inactive) in the assay on BT-549; > 100 µM (inactive) in the assay with ACHN; > 100 µM (inactive) in the assay on PC-3; > 100 µM (inactive) with SW-620; > 100 µM (inactive) in the assay with CAKI-1; above 100 µM in the assay on HCT-15. Also, the GI50 in the assay on K562, with MCF7, in the assay with TK-10, with SN12C, in the assay on KM12 and in the assay with HOP-92 was > 100 µM (inactive) in each case. The GI50 with A549, in the assay with UACC-62, in the assay on NCI-H460, in the assay with SF-268, in the assay on NCI-H522 and with T47D was > 100 µM (inactive) throughout. Further, in the assay with LOX IMVI, the GI50 is > 100 µM (inactive).

Take `O=c1c2sc3nc(NCCN4CCCCC4)ncc3c2ncn1-c1ccccc1`: the GI50 is 85.9 µM (inactive) in the assay on BT-549; 42 µM (inactive) in the assay on ACHN; 59.3 µM (inactive) in the assay with PC-3; 46.7 µM (inactive) with SW-620; 33 µM (inactive) with CAKI-1; 40.4 µM in the assay on HCT-15. In addition, the GI50 is 47.1 µM (inactive) in the assay on K562; 48.3 µM (inactive) in the assay with TK-10; > 100 µM (inactive) with SN12C; > 100 µM (inactive) in the assay with KM12; 27.3 µM (inactive) in the assay with HOP-92; 40.6 µM (inactive) in the assay with A549. The GI50 with UACC-62 was 82.2 µM (inactive); with NCI-H460 it was 55.6 µM (inactive); with SF-268, 60 µM (inactive); with NCI-H522 it was 41 µM (inactive); with SR it was > 100 µM (inactive); in the assay on T47D, 35.8 µM (inactive). Besides, the GI50 with LOX IMVI is 17.3 µM (inactive).

`O=[N+]([O-])c1cccc(-c2csc(N/N=C3\NC/C(=C/c4ccc5c(c4)OCO5)S3)n2)c1`: the GI50 with BT-549 is 25.1 µM (inactive); in the assay with ACHN, 28.9 µM (inactive); with PC-3, 21.5 µM (inactive); in the assay on SW-620 it was 34 µM (inactive); in the assay with CAKI-1, 38.4 µM (inactive); in the assay with HCT-15, 35.7 µM. The GI50 in the assay on K562 was 38.3 µM (inactive); in the assay with MCF7 it was 33.7 µM (inactive); in the assay on TK-10, 32.2 µM (inactive); with SN12C, 37.2 µM (inactive); in the assay with KM12, 12.9 µM (inactive); with HOP-92 it was 16.1 µM (inactive). Besides, the GI50 was 39.4 µM (inactive) with A549; 18.8 µM (inactive) in the assay with UACC-62; 33.5 µM (inactive) in the assay with NCI-H460; 23.3 µM (inactive) with SF-268; 18.2 µM (inactive) in the assay on NCI-H522; 29.9 µM (inactive) in the assay with T47D. Besides, the GI50 in the assay with LOX IMVI was 50.7 µM (inactive).

On to `CN1c2ccccc2S(=O)(=O)n2c(CCc3ccccc3)nnc21`, for which the GI50 in the assay with BT-549 is > 100 µM (inactive); in the assay with ACHN, > 100 µM (inactive); with PC-3, > 100 µM (inactive); in the assay on SW-620, > 100 µM (inactive); in the assay with CAKI-1, 44.1 µM (inactive); in the assay with HCT-15, above 100 µM. The GI50 is > 100 µM (inactive) with K562; > 100 µM (inactive) in the assay with MCF7; > 100 µM (inactive) with TK-10; > 100 µM (inactive) in the assay on SN12C; > 100 µM (inactive) with KM12; 37.8 µM (inactive) in the assay with HOP-92. Moreover, the GI50 is > 100 µM (inactive) with A549; > 100 µM (inactive) in the assay with UACC-62; 98.6 µM (inactive) in the assay with NCI-H460; > 100 µM (inactive) with SF-268; 43.9 µM (inactive) in the assay on NCI-H522; > 100 µM (inactive) with T47D. In the assay on LOX IMVI, the GI50 is > 100 µM (inactive).

Take `O=c1[nH]c2ccccc2c2nc3ccccc3n12`: the GI50 was 83 µM (inactive) in the assay on BT-549; 7.03 µM (inactive) in the assay with ACHN; > 100 µM (inactive) with PC-3; 61.2 µM (inactive) in the assay with SW-620; 6.37 µM (inactive) in the assay with CAKI-1; above 100 µM with HCT-15. The GI50 was > 100 µM (inactive) with K562; 21.8 µM (inactive) in the assay on MCF7; 6.75 µM (inactive) in the assay with TK-10; > 100 µM (inactive) with SN12C; 22.4 µM (inactive) with KM12; 13.9 µM (inactive) in the assay on HOP-92. The GI50 with A549 is 33.2 µM (inactive); in the assay on UACC-62 it was 6.64 µM (inactive); with NCI-H460, 2.54 µM (inactive); in the assay with SF-268, 53.7 µM (inactive); with NCI-H522 it was 7.21 µM (inactive); in the assay with T47D, > 100 µM (inactive). The GI50 with LOX IMVI was > 100 µM (inactive).

As for `N#CC(c1ccccc1)N(CCc1ccccc1)C(=O)c1ccc(C(=O)N(CCc2ccccc2)C(C#N)c2ccccc2)cc1` (stereo unspecified), the GI50 in the assay on BT-549 was 14.5 µM (inactive); with ACHN, 24 µM (inactive); with PC-3 it was 21.7 µM (inactive); in the assay with SW-620, 22.9 µM (inactive); in the assay with CAKI-1 it was 30.6 µM (inactive); in the assay on HCT-15, 18.6 µM. The GI50 is 20.9 µM (inactive) in the assay on K562; 30.3 µM (inactive) in the assay with MCF7; 13.9 µM (inactive) in the assay on TK-10; 19.5 µM (inactive) in the assay with SN12C; 32.9 µM (inactive) in the assay with KM12; 12.9 µM (inactive) in the assay on HOP-92. Further, the GI50 was 26.7 µM (inactive) in the assay on A549; 15.5 µM (inactive) in the assay on UACC-62; 18.5 µM (inactive) with NCI-H460; 22 µM (inactive) with SF-268; 16.9 µM (inactive) in the assay with T47D; 17.9 µM (inactive) in the assay with LOX IMVI.

For `OC(c1ccccc1)(c1cccnc1)C(O)(c1ccccc1)c1cccnc1` (stereo unspecified), the GI50 is > 100 µM (inactive) in the assay with BT-549; > 100 µM (inactive) in the assay with ACHN; > 100 µM (inactive) in the assay with PC-3; > 100 µM (inactive) in the assay on SW-620; > 100 µM (inactive) in the assay with CAKI-1; above 100 µM in the assay with HCT-15. Further, the GI50 with K562 was > 10 µM (inactive); with MCF7, > 100 µM (inactive); with TK-10 it was > 100 µM (inactive); in the assay on SN12C, > 100 µM (inactive); in the assay on KM12, > 100 µM (inactive); with HOP-92, > 100 µM (inactive). Moreover, the GI50 with A549 is > 100 µM (inactive); in the assay on UACC-62, > 100 µM (inactive); in the assay on NCI-H460 it was > 100 µM (inactive); with SF-268 it was > 100 µM (inactive); with NCI-H522 it was 6.97 µM (inactive); in the assay with T47D, > 100 µM (inactive).

As for `CC(=O)Nc1nc2c(=O)c3ccccc3sc2s1`, the GI50 was > 100 µM (inactive) in the assay on BT-549; > 100 µM (inactive) with ACHN; > 100 µM (inactive) with PC-3; > 100 µM (inactive) with CAKI-1; above 100 µM in the assay with HCT-15; > 100 µM (inactive) with K562. The GI50 was 34.4 µM (inactive) in the assay with MCF7; 87.3 µM (inactive) in the assay with TK-10; > 100 µM (inactive) with SN12C; > 100 µM (inactive) in the assay on KM12; > 100 µM (inactive) in the assay on A549; > 100 µM (inactive) in the assay with UACC-62. In addition, the GI50 in the assay on NCI-H460, in the assay with SF-268 and in the assay on T47D was > 100 µM (inactive) each time.

Consider `C=C(C)[C@H]1[C@@H]2OC(=O)[C@H]1[C@]1(O)C[C@H]3OC34C(=O)O[C@H]2[C@@]41C.CC(C)(O)[C@H]1[C@@H]2OC(=O)[C@H]1[C@]1(O)C[C@H]3OC34C(=O)O[C@H]2[C@@]41C` (stereo partly specified), for which the GI50 in the assay with BT-549 was > 100 µM (inactive); with ACHN, > 100 µM (inactive); in the assay with PC-3, > 100 µM (inactive); in the assay with SW-620, > 100 µM (inactive); with CAKI-1, > 100 µM (inactive); in the assay on HCT-15, above 100 µM. The GI50 with K562, in the assay with MCF7, with TK-10, in the assay on SN12C, in the assay with KM12 and in the assay on HOP-92 was > 100 µM (inactive) each time. The GI50 with A549, in the assay with UACC-62, in the assay on NCI-H460, in the assay on SF-268, in the assay with NCI-H522 and in the assay on T47D was > 100 µM (inactive) each time. Besides, the GI50 in the assay with LOX IMVI is > 100 µM (inactive).

These data come from ChEMBL document CHEMBL1201862, “PubChem BioAssay data set” (2004).
